Data published in article PMC3174134, “Lucanthone and Its Derivative Hycanthone Inhibit Apurinic Endonuclease-1 (APE1) by Direct Protein Binding” (PLoS ONE, 2011).

Experiments:
APE1 = APE1 (Homo sapiens, UniProt P27695); test: APE1 cleavage in whole cell extracts of U251 1-5 APE1 overexpressor clone, Western blot with protease inhibitor cocktail; design: the full length APE1 protein was successfully expressed and purified; made in house; host or cells: E. coli BL21/DE3; conditions: U251 1-5 whole cell extracts, 2 h, 37°C
Protocol: (§1) Total purified protein concentration was determined by the ratio of A280/A260. 250 ng of APE1 treated with lucanthone or hycanthone (0.05–100 µM) for 2 h at 37°C in final volume of 30 µl were mixed with an equal volume of gel loading buffer (0.001% bromophenol blue, 4% SDS, 10% 2-ME, 20% glycerol, and 125 mM Tris pH 6.8) and denatured at 95°C for 5 min. Total protein concentration in cell extracts was determined using the Bradford assay (BioRad, Hercules, CA) and 25 µg of total protein from soluble or insoluble cell fractions were mixed with an equal volume of gel loading buffer (0.001% bromophenol blue, 4% SDS, 10% 2-ME, 20% glycerol, and 125 mM Tris pH 6.8) and denatured at 95°C for 5 min. This mixture was separated by SDS-PAGE (4% stacking, 7.5% resolving gel) for 2–3 h at 40 mA on a BioRad MiniPROTEAN II Electrophoresis Cell. To detect proteins, proteins were transferred onto a trans-Blot nitrocellulose membrane (0.45 µm; BioRad) overnight at 4°C at 15 mA in standard Tris-Glycine buffer containing 20% ethanol. […] Chemi-luminescence was developed using an ECL kit according to the manufacturer's instructions and detected by exposing the blot to HyperfilmECL for 30 s–3 min. […]

APE1 mutant proteins [1] = target: T1, APE1 mutant proteins (Homo sapiens, UniProt P27695, W280S); test: Cleavage of mutant APE1 proteins by lucanthone, Western blot; conditions: 100 µM lucanthone, 37°C, 2 h
T1 construct: made in house
Protocol: as §1

APE1 mutant proteins [2] = test: as above; design: species or system human; conditions: 100 µM lucanthone, 37°C, 2 h
Protocol: as §1

[3] = target: E.coli endonuclease IV (Nfo) (Escherichia coli, UniProt P0A6C1); test: Circular dichroism of E.coli Nfo with lucanthone; conditions: 140 µM lucanthone, 37°C, 60 min
[4] = target: T2, APE1 single mutants (F266A or W280S) (Homo sapiens, UniProt P27695, F266A); test: Endonuclease activity of APE1 hydrophobic site mutants with lucanthone; type: biochemical; conditions: 100 µM lucanthone, 2 h, 37°C
T2 construct: made in house
Protocol: APE1 endonuclease activity was determined using an assay that measures the conversion of plasmid DNA from supercoiled to relaxed form by incision at an abasic site [35]–[36]. Briefly, the substrate used was 200 ng of depurinated pUC18 DNA in 10 µl of 1× APE1 buffer containing 50 mM Hepes, pH 7.4, 150 mM KCl, 5 mM MgCl2 and 100 µg/ml of BSA in presence of different concentrations of the cell extract (1 µl containing 0–55 ng of total protein). Similar reactions mixtures were set up with untreated pUC18, which served as the internal control. This reaction mixture was incubated at 37°C for 15 min, and the reaction was stopped by addition of alkaline stop mix (0.25% bromocresol green in 0.25N NaOH, 50% glycerol) and left at room temperature for 10–15 min. Then the products were resolved on a 0.8% agarose gel in 40 mM Tris-acetate and 2 mM EDTA for 2 h. The gel was stained with ethidium bromide to visualize supercoiled and relaxed plasmid DNA and imaged with a digital imaging system and the area under the supercoiled and relaxed form was determined. Final calculations were done in femtomoles (fmol) of abasic sites incised/min/mg protein with normalization done using Pyruvate Kinase units (PKU) present in these extracts. […] The endonuclease activity inhibition by lucanthone was analyzed using standard Lineweaver-Burke Plot to determine if the inhibition was competitive or non-competitive.

tubulin = test: Tubulin stability in U251 1-5 whole cell extracts, Western blot; conditions: lucanthone 2.5-100 µM; CRT at 200 µM
Protocol: as §1

[5] = system: APE1 mutants F266A, F266C, F266A/W280A, D210N; test: Circular dichroism of APE1 mutant proteins with lucanthone; design: species or system human; conditions: 140 µM lucanthone, 14 µM protein, 37°C, 60 min
Protocol: (§2) APE1 and its mutant proteins (10 mg/ml), 50 µl (500 µg) (14 µM) in APE1 buffer (50 mM HEPES, pH 7.4, 150 mM KCl, 5 mM MgCl2), were mixed with lucanthone/hycanthone (1 mg/ml), 50 µl (50 µg), 140 µM and incubated at 37°C for 60 min and far UV-CD spectra were recorded at NSLS U11 beam line at BNL. Lucanthone and hycanthone were also scanned as drug controls. The scanning parameters used were a 0.001 cm path length quartz cell, scanning wavelengths from 260 to 170 nm, bandwidth of 0.5 nm, digital integration time of 1 s, time constant of 200 ms, step size of 1 nm, and sensitivity of 200 µV. The data were corrected with blank subtraction from APE1 buffer alone. The secondary structure for APE1 with or without lucanthone or hycanthone was analyzed using CDSSTR program DICHROWEB [38].

[6] = target: T3, APE1 mutants F266A, F266C, F266A/W280A, D210N (Homo sapiens, UniProt P27695, F266A/W280A); test: as above; conditions: 140 µM lucanthone, 14 µM protein, 37°C, 60 min
T3 construct: made in house
Protocol: as §2

T2 sequence (P27695 2-318 F266A): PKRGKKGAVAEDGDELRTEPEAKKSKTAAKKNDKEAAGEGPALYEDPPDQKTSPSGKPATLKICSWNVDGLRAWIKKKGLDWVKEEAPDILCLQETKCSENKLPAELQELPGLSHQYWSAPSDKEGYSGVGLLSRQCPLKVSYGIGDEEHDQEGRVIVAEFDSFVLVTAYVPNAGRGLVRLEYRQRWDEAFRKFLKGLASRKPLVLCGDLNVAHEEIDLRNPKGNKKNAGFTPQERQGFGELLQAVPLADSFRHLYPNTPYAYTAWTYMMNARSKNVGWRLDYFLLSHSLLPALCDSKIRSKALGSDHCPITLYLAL
T1 sequence (P27695 2-318 W280S): as the sequence (P27695 2-318 F266A) above, with A265F, W279S counted along it
Chain of APE1 (P27695 whole entry): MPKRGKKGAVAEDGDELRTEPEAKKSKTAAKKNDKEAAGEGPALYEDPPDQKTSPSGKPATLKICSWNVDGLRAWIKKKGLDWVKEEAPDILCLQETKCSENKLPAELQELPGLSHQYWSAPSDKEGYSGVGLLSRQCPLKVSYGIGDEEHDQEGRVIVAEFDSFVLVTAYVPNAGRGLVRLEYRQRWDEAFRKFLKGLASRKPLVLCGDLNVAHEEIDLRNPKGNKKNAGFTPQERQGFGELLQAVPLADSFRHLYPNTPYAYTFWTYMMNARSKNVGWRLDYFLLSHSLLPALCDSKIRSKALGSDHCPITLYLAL
T3 sequence (P27695 2-318 F266A/W280A): as the sequence (P27695 2-318 F266A) above, with W279A counted along it

Structure (SMILES): CCN(CC)CCNc1ccc(C)c2sc3ccccc3c(=O)c12 [lucanthone, 1-[2-diethylaminoethylamino]-4-methylthioxanthen-9-one]
- Concentration causing cleavage of APE1 (APE1): 50 µM
- Cleavage of W280S mutant (APE1 mutant proteins [1]): significant cleavage
- Cleavage of hydrophobic site mutants except W280S (APE1 mutant proteins [2]): did not undergo cleavage
- Conformational change of E.coli Nfo (CD) [3]: little conformational changes
- Inhibition of endonuclease activity of single mutants F266A or W280S [4]: no inhibition was detected
- Effect on tubulin protein (tubulin): unaffected
- Conformational change of wild type and D210N active site mutant APE1 (CD) [5]: able to induce conformational changes
- Conformational change of double mutant F266A/W280A (CD) [6]: almost no conformational change
